Reference: patent US20230293630A1, “Coronavirus T Cell Epitopes and Uses Thereof” (priority 2020, published 2023)
Values joined by “and” are separate entries in the source; they are usually repeats but may differ in a detail not shown here. Equal values may be shown once.

Legend:
[1] = system: SARS-CoV-2-specific CD8+ T cells (CD69+CD137+) in PBMC; format: cell-based, human; on Magnitude of response: unit not given here; on Sum of response: unit not given here
human T cells = experiment: T cell cytokine SFC response to cross-reactive CD4 epitopes (Tables 6-8); format: cell-based; details: for Total SFC: cross-reactive CD4 non-spike SARS-CoV-2 epitopes, all cytokines; for IFNg / IL5 / IL13: cross-reactive CD4 non-spike epitopes; for IFNg: IFNg spot forming cells; for IL5: IL5 spot forming cells; for IL13: IL13 spot forming cells

Substance | Frequency of positive response [1] | Magnitude of response [1] | Sum of response [1] | Total SFC (human T cells) | IFNg (human T cells) | IL5 (human T cells) | IL13 (human T cells)
EPVLKGVKL | 20 | 313 | 313 |  |  |  | 
YKTFPPTEPK | 50 | 139 | 139 |  |  |  | 
AAISDYDYYR | 100 | 290 | 290 |  |  |  | 
VTYVPAQEK | 33 and 25 | 435 and 235 | 435 and 235 |  |  |  | 
KTFPPTEPKKDKKK | 50 | 122 | 122 |  |  |  | 
YQDVNCTEV | 50 | 243 | 243 |  |  |  | 
246 (DAALALLLLDRLNQL) [compound 246] |  |  |  | 3813 SFC | 3520 | 0 | 0
SEPVLKGVKL | 40 | 251 | 501 |  |  |  | 
EILPVSMTK | 25 and 50 |  |  |  |  |  | 
RLQSLQTY | 33 | 142 | 142 |  |  |  | 
KAYNVTQAF | 50 and 33 |  |  |  |  |  | 
848 (VKHVYQLRARSVSPK) [compound 848] |  |  |  | 3640 SFC | 2947 | 227 | 0
247 (LLLLDRLNQLESKMS) [compound 247] |  |  |  | 1053 SFC | 1053 | 0 | 0
HTTDPSFLGR | 50 | 312 | 312 |  |  |  | 
847 (MKIILFLALITLATC) [compound 847] |  |  |  | 373 SFC | 293 | 0 | 0
849 (LYSPIFLIVAAIVFI) [compound 849] |  |  |  | 520 SFC | 400 | 0 | 0
245 (DDQIGYYRRATRRIR) [compound 245] |  |  |  | 787 SFC | 400 | 0 | 120
820 (EEIAIILASFSASTS) [compound 820] |  |  |  | 13813 SFC | 7773 | 1587 | 1507
806 (SEETGTLIVNSVLLF) [compound 806] |  |  |  | 267 SFC | 267 | 0 | 0
AISDYDYYR | 100 | 173 | 173 |  |  |  | 
